{
  "source": "patent US8097440B1",
  "about": "“Engineered microorganisms capable of producing target compounds under anaerobic conditions” (Gevo, Inc., priority 2008, dated 2012)",
  "key": {"[1]": {"biological_target": "T1, Escherichia coli KARI (ketol-acid reductoisomerase) Ec_IlvC^his6, wild type IlvC (SEQ ID NO: 13) with his6-tag, SEQ ID NO: 15 (Escherichia coli, UniProt P05793)", "T1 sequence (P05793 with tags, fused parts or gaps)": "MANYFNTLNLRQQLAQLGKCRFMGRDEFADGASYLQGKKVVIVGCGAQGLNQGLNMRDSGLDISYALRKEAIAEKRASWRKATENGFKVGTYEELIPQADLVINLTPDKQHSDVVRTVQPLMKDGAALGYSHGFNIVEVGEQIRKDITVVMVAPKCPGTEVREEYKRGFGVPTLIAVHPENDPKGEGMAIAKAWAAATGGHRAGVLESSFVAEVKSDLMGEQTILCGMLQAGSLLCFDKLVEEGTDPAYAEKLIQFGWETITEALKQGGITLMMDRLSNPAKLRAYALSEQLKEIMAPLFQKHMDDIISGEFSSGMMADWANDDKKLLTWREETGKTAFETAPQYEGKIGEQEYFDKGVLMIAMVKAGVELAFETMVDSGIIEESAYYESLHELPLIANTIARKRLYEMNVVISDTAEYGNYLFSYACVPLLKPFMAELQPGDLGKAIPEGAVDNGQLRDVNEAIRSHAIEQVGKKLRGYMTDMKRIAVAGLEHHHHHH", "test": "KARI cuvette assay, purified Ec_IlvC^his6 (parent / wild type)", "format": "biochemical, E. coli", "conditions": "relative to Ec_IlvC^his6 with NADPH", "protocol": "(§1) KARI cuvette assay: KARI activity was assayed kinetically by monitoring the decrease in NAD(P)H concentration by measuring the absorbance at 340 nm. A reaction buffer was prepared containing 250 mM potassium phosphate pH 7, 1 mM DTT and 10 mM MgCl2. Cell pellets were resuspended (0.25 g wet weight/mL buffer) in 250 mM potassium phosphate (KPi) buffer containing 1 mM DTT and 10 mM MgCl2. The resuspended cells were lysed by sonication for 1 min with a 50% duty cycle and pelleted at 11000×g and 4° C. for 15 min. A reaction mixture consisting of 910 μl reaction buffer, 50 μl acetolactate, and 20 μl lysate was prepared in a cuvette. […]\n(§2) Only 20% of the enzymes of the recombination library were active on NADH. After screening 1,000 clones using the NADH depletion assay at 340 nm, 26 KARI variants were selected for a rescreen by the high-throughput assay described in Example 14 and eight thereof were expressed in 25 ml LBamp medium in shake flasks according to the protocol for cell growth and protein expression in shake flasks as described in Example 14, purified according to the protocol for purification of KARI enzymes as described in Example 14, and NAD(P)H depletion at 340 nm was measured again. […] The KM values of variants Ec_llvC^2H10-his6 and Ec_llvC^6E6-his6 were measured and the catalytic efficiencies were calculated."}, "[2]": {"biological_target": "T2, E. coli KARI Ec_IlvC variant Ec_IlvC^6E6-his6 (A71S, R76D, S78D, Q110V), SEQ ID NO: 34 (Escherichia coli, UniProt P05793, A71S/Q110V/R76D/S78D)", "T2 construct": "T37 values cited for the gene on pGV1975", "T2 sequence (P05793 with tags, fused parts or gaps A71S/R76D/S78D/Q110V)": "T1 sequence (P05793 with tags, fused parts or gaps) with A71S, R76D, S78D, Q110V", "test": "KARI assay, purified Ec_IlvC^6E6-his6", "format": "biochemical", "protocol": "as §1\nas §2, with “calculated. […]” for “calculated.”"}},
  "note": "Positions count from the first letter of the chain named.",
  "data": [
    {"smiles": "NC(=O)C1=CN([C@@H]2O[C@H](COP(=O)(O)OP(=O)(O)OC[C@H]3O[C@@H](n4cnc5c(N)ncnc54)[C@H](O)[C@@H]3O)[C@@H](O)[C@H]2O)C=CC1", "note": "[NADH, nicotinamide adenine dinucleotide]", "values": [
      {"measurement": "(kcat/KM with NADH)/(kcat/KM of Ec_IlvC^his6 with NADPH)", "setting": "[1]", "result": 1, "unit": "%"},
      {"measurement": "kcat/KM", "setting": "[2]; Example 15, expressed in E. coli BL21(DE3), purified", "result": "74,045 M^−1 * s^−1"},
      {"measurement": "activity (in terms of kcat/KM) on NADH compared to wild-type activity on NADPH", "setting": "[2]; best variant, relative to wild-type with NADPH", "result": 85, "unit": "%"}
    ]}
  ]
}
